Data reported in patent publication US20250205242A1, “CDK7 INHIBITORS FOR ANTIVIRAL TREATMENT” (QURIENT CO., LTD., priority 2022, published 2025).

How the values were obtained:
[1] = test system: ganciclovir (GCV)-resistant HCMV strain ADP169-GFP314; experiment: HCMV-GFP-based antiviral assay, ganciclovir-resistant strain; assay type: cell-based, human cytomegalovirus
Experimental: A series of laboratory variants of AD169-GFP virus that are resistant to GCV was generated. HFF were infected in 12-well plates at a multiplicity of infection (MOI) of 0.002 and incubated with […] Ganciclovir. GFP expression in infected cells was monitored microscopically, and the supernatants from the positive wells were transferred to fresh cells weekly. Thereby Ganciclovir concentrations were increased stepwise (a […] increase at each step) up to the point where total virus replication became critical and resistant virus was grown in individual wells. Using supernatants from these wells, two rounds of plaque purifications were performed in HFF. Finally, Ganciclovir-resistant viral clones (AD169-GFP314) which were able to replicate in the presence of […] GCV were isolated.
HFF were cultured to 90% confluency in 12-well plates and used for infection with AD169-GFP HCMV-virus at a tissue culture infective dose of 0.5 (GFP-TCID50 0.5, referring to an MOI of 0.002 as determined by plaque assay titration). Virus inoculation was performed for 90 min at 37° C. with occasional shaking before virus was removed and the cell layers were rinsed with phosphate-buffered saline (PBS). Then infected cell layers were incubated with 2.5 ml of MEM containing 5% (vol/vol) fetal calf serum with or without a dilution of one of the respective test compounds. Infected cells were incubated at 37° C. under a 5% CO2 atmosphere for 7 days. For lysis, […] of lysis buffer (25 mM Tris [pH 7.8], 2 mM dithiothreitol [DTT], 2 mM trans-1,2-diaminocyclohexane-N,N,N9,N9-tetraacetic acid, 1% Triton X-100, 10% glycerol) was added to each well and incubated for 10 min at 37° C., followed by a 30-min incubation at room temperature on a shaker. Lysates were centrifuged for 5 min at 15,000 rpm in an Eppendorf centrifuge to remove cell debris. […] The […] of compounds against virus replication was determined by EC50 (50% effective concentration).

HCMV strain AD169-GFP = experiment: HCMV-GFP-based antiviral assay in HFF; assay type: cell-based, human cytomegalovirus
HPV11 = experiment: HPV genome replicon assay (NanoLuc) in C-33 A cells, HPV11; assay type: cell-based, Human Papilloma Virus; details: reference compound; value within the prescribed range
Source text: C-33 A, […] were obtained from ATCC and maintained in standard growth medium of MEM with Earl's salts supplemented with 10% FBS (Hyclone, Inc. Logan UT), L-glutamine, penicillin, and gentamycin.
HPV genome replicon assay was developed and expresses the essential E1 and E2 proteins from the native promoter. The E2 origin binding protein interacts with the virus origin of replication and recruits the E1 replicative helicase which unwinds the DNA and helps to recruit the cellular DNA replication machinery (including DNA polymerases, type I and type II topoisomerases, DNA ligase, single-stranded DNA binding proteins, proliferating cell nuclear antigen). The replication complex then drives the amplification of the replicon which can be assessed by the expression of a destabilized NanoLuc reporter gene carried on the replicon. In the HPV11 assay, the replicon (pMP619) is transfected into C-33 A cells grown as monolayers in 384-well plates. At 48 h post transfection, the enzymatic activity of the destabilized NanoLuc reporter is assessed with NanoGlo reagent. […] Analysis of HPV genome replication in specific types of HPV, such as HPV6, HPV11, or HPV31 is performed with plasmid systems that utilize each HPV type.

| Structure (SMILES) | antiviral effectiveness against viruses resistant to nucleobase analogue drugs [1] | antiviral effectiveness against non-resistant viruses (HCMV strain AD169-GFP) | EC50 (HPV11) [µM] |
| --- | --- | --- | --- |
| C=C(F)C(=O)Nc1ccc2c(-c3ccccc3CNc3nc(N[C@@H]4CCC(C)(C)NC4)nc4c(C(C)C)cnn34)nccc2c1 [Compound 174] | highly effective | highly effective |  |
| C=C(F)C(=O)Nc1ccc2c(-c3ccccc3CNc3nc(NC4CCC(C)(C)NC4)nc4c(C(C)C)cnn34)nccc2c1 (stereo not shown) [Compound 175] | highly effective | highly effective |  |
| C=C(F)C(=O)Nc1ccc2c(-c3ccccc3CNc3nc(OC4CCC(C)(C)NC4)nc4c(C(C)C)cnn34)nccc2c1 (stereo not shown) [Compound 177] | highly effective | highly effective |  |
| Nc1nc2c(ncn2CCOCP(=O)(O)O)c(=O)[nH]1 [PMEG] |  |  | 2 to 9.2 |
